# Assays:
# A549 = assay: MTT cell viability assay, A549; format: cell-based, human; conditions: mean ± SE
# Protocol: (§1) HeLa, A549, HepG2, HL-60, and WI-38 cell lines were incubated in DMEM solution containing 10% FBS for 48 h. The incubated tumor cells were seeded into 96-well plates (5 × 10^3 cells/well) to make them attach for 12 h. Afterwards, the cells were processed with the various concentrations of the synthetic compounds and 5-FU for 48 h. After removing the cell culture supernatant, 10 µl MTT (5 mg/ml) solution was dripped into the cells to generate a formazan product, which were dissolved by dimethyl sulfoxide (DMSO) 4 h later. Multifunction microplate reader (Bio-Rad Laboratories, Shanghai, China) was adopted to measure the absorbance at the wave length of 490 nm. The IC50 (the lowest drug concentration causing 50% of the tumor cells inhibition) was then calculated using GraphPad Prism Software (version 5.02) and used to indicate the cytotoxic effect of the target compounds on the selected tumor cells.
# Hela = assay: MTT cell viability assay, Hela; format: cell-based, human; conditions: 48 h, mean ± SE
# Protocol: as §1
# HepG2 = assay: MTT cell viability assay, HepG2; format: cell-based, human; conditions: mean ± SE
# Protocol: as §1
# HL-60 = assay: MTT cell viability assay, HL-60; format: cell-based, human; conditions: mean ± SE
# Protocol: as §1
# WI-38 = assay: MTT cell viability assay, normal cell line WI-38; format: cell-based, human; conditions: normal cells, mean ± SE
# Protocol: as §1
# [1] = system: mitochondrial membrane potential in HepG2 cells; assay: Mitochondrial membrane potential by JC-1 probe; format: cell-based, human; conditions: CCCP for 20 min, without a14, positive control
# Protocol: JC-1 probe was used to detect changes in MMP. Firstly, HepG2 cells (3 × 10^5 cells/well) were seeded into a six-well plate overnight for adherence, and then treated with various concentrations of a14 for 48 h. Next, the cells were treated with JC-1 (2.5 µg/ml) at 37°C for 10 min in the dark and rinsed three times with PBS. Then, the six-well plate was placed under the fluorescence microscope (excitation 480/30× nm, emission 515 nm) to observe the fluorescence color and intensity of JC-1 in the cells. In addition, HepG2 cells (3 × 10^5 cells/well) were inoculated on another six-well plate overnight to allow adherence, and then treated with a14 (50 µM) for 0, 12, 24, 36, and 48 h, adding CCCP (without a14) for 20 min to completely lose the mitochondrial membrane potential. Cells were then incubated with JC-1 (2.5 µg/ml) at 37°C in the dark for 10 min and rinsed with PBS for three times. Fluorescence intensity of residual JC-1 in cells was measured by Beckman Coulter flow cytometer (FITC, 525/40BP). The data obtained was analyzed by CytExpert 2.0 software imbedded in the flow cytometry.
# [2] = system: adherent tumor cell lines (HepG2, A549 and Hela); assay: MTT assay, summary over adherent tumor cell lines; format: cell-based; conditions: Homo sapiens; span of IC50 over compounds a11-a14 and adherent tumor cell lines; read-out: IC50 range over cell lines
# Protocol: as §1
"IC50 (A549; Homo sapiens, A549, 48 h) [µM]","IC50 (Hela; Homo sapiens, HeLa) [µM]","IC50 (HepG2; Homo sapiens, HepG2, 48 h) [µM]","IC50 (HL-60; Homo sapiens, HL-60, 48 h) [µM]",IC50 (A549; 48 h) [µM],IC50 (Hela) [µM],IC50 (HepG2; 48 h) [µM],IC50 (HL-60; 48 h) [µM],IC50 [2] [µM],Compound,"IC50 (WI-38; Homo sapiens, WI-38, 48 h) [µM]",IC50 (WI-38; 48 h) [µM],"JC-1 (FITC), right of the gate line (green fluorescence) [1] [%]"
57.2 ± 1.53,82.2 ± 4.8,68.1 ± 5.51,108 ± 3.5,,,,,,NC(=O)c1cc(C(=O)/C=C/c2ccccc2)ccc1O [a5],127 ± 6.6,,
51.3 ± 2.11,74.8 ± 2.33,75.4 ± 3.27,213 ± 2.98,,,,,,Cc1ccccc1/C=C/C(=O)c1ccc(O)c(C(N)=O)c1 [a6],109 ± 1.49,,
,,,,53.7 ± 1.16,35.2 ± 1.39,42.9 ± 2.88,165 ± 4.74,,"O=c1[nH]cc(F)c(=O)[nH]1 [5-FU, reference compound]",,62.8 ± 2.03,
,,,,,,,,,"carbonyl cyanide m-chlorophenyl hydrazine [CCCP, reference compound]",,,99.98
59.6 ± 5.23,77.6 ± 4.74,71.2 ± 4.63,141 ± 5.19,,,,,,NC(=O)c1cc(C(=O)/C=C/c2cccc(Br)c2)ccc1O [a3],126.2 ± 0.46,,
45.6 ± 1.05,54.4 ± 1.11,70.8 ± 4.03,131 ± 4.64,,,,,,COc1cccc(/C=C/C(=O)c2ccc(O)c(C(N)=O)c2)c1 [a10],93.3 ± 3.13,,
57.6 ± 1.42,65.1 ± 1.34,80.3 ± 1.87,210 ± 3.03,,,,,,COc1ccccc1/C=C/C(=O)c1ccc(O)c(C(N)=O)c1 [a9],98.5 ± 4.91,,
65 ± 2.35,53.6 ± 0.67,57.4 ± 3.07,301 ± 3.53,,,,,,Cc1ccc(/C=C/C(=O)c2ccc(O)c(C(N)=O)c2)cc1 [a8],147 ± 13.2,,
48.2 ± 2.25,65.9 ± 7.8,46.41 ± 0.05,110 ± 2.04,,,,,,NC(=O)c1cc(C(=O)/C=C/c2ccc(Br)cc2)ccc1O [a4],100 ± 11.5,,
82.5 ± 3.61,98.9 ± 2.9,77 ± 1.34,135 ± 2.45,,,,,,NC(=O)c1cc(C(=O)/C=C/c2cccc(Cl)c2)ccc1O [a2],122 ± 2.33,,
35.8 ± 1.02,48.2 ± 0.56,44.7 ± 1.56,245 ± 5.54,,,,,23.3 to 54.4,COc1ccc(/C=C/C(=O)c2ccc(O)c(C(N)=O)c2)cc1 [a11],89.5 ± 6.61,,
107 ± 2.14,125 ± 6.92,135 ± 9.79,131 ± 5.38,,,,,,NC(=O)c1cc(C(=O)/C=C/c2ccc(F)cc2)ccc1O [a1],229 ± 7.38,,
37.6 ± 1.11,31.8 ± 1.62,50.3 ± 4.03,134 ± 4.44,,,,,23.3 to 54.4,COc1ccc(/C=C/C(=O)c2ccc(O)c(C(N)=O)c2)cc1OC [a13],118 ± 3.53,,
41.2 ± 2.15,35.3 ± 2.13,54.37 ± 0.52,160 ± 3.59,,,,,23.3 to 54.4,COc1ccc(/C=C/C(=O)c2ccc(O)c(C(N)=O)c2)c(OC)c1 [a12],123 ± 2.45,,
40.7 ± 3.68,40.7 ± 1.33,55.6 ± 3.23,111 ± 1.57,,,,,,Cc1cccc(/C=C/C(=O)c2ccc(O)c(C(N)=O)c2)c1 [a7],81.7 ± 1.13,,

# Reference: article PMC6874057, “Synthesis of Chalcone Derivatives: Inducing Apoptosis of HepG2 Cells via Regulating Reactive Oxygen Species and Mitochondrial Pathway” (Frontiers in Pharmacology, 2019)
